Test results reported in patent US20230355562A1, “METHODS FOR STABILIZING ATHEROSCLEROTIC PLAQUES USING LIPOXINS, RESOLVINS, AND ANALOGS THEREOF” (The Forsyth Institute, priority 2015, published 2023).

Experiments:
[1] = system: polymorphonuclear leukocyte (PMN) infiltration; conditions: in vivo, mouse model of acute inflammation; cited from earlier work
atherosclerotic plaques = assay: Plaque disruption by MRI before and after triggering in a rabbit model of atherosclerosis (cholesterol diet plus balloon injury); type: in vivo, New Zealand White (NZW) rabbits; conditions: for plaque stabilization: applied to both sides of the mandible on the gingiva every-other-day, high cholesterol diet and balloon injury to descending thoracic and abdominal aortic segments
Method: New Zealand White (NZW) rabbits (n=10) received cholesterol-enriched diet (1%) for 8 weeks to develop atherosclerosis. In addition, balloon injury was performed at 2 weeks to advance the atherosclerosis at the descending thoracic and abdominal aortic segments. The […] of cholesterol feeding was followed by a 4 week period of normal chow diet at the end of the experiment. Half of the rabbits were randomized in the experimental (9,12 benzo LXA4-treated) group and half in the control group.
Topical LXA4 (1 mg/ml) was applied on both side of the mandible on the gingiva every-other-day for the duration of the experiment. In vivo MRI images were taken at 12 weeks at before and after triggering. After euthanasia, the aortas were dissected for ex-vivo MRI and histology.

Row | Molecule | levels of pro-inflammatory cytokines [1] | polymorphonuclear leukocyte (PMN) infiltration [1] | plaque stabilization (atherosclerotic plaques) | segments that showed disruption (post-trigger image showed a luminal thrombus) of segments analyzed (atherosclerotic plaques; treatment group, topical 1 mg/ml on gingiva, both sides of the mandible, every-other-day, in vivo MRI at 12 weeks, only one site in one rabbit)
1 | 9,12 benzo LXA4 | significantly reducing | significantly reducing | sufficient to stabilize atherosclerotic plaques | 2/104
2 | CC[C@@H](O)/C=C/C=C\C[C@@H](O)/C=C/C=C/C=C\[C@@H](O)CCCC(=O)O [Resolvin E1] | – | – | sufficient to stabilize atherosclerotic plaques | –
